From US20220313780A1, “METHODS AND COMPOSITIONS FOR TREATING INFLAMMATORY CONDITIONS” (THE SCRIPPS RESEARCH INSTITUTE, priority 2019, published 2022)

System: endothelial cells (EA.hy926)
Experiment: Transendothelial Electric Resistance (TER) assay of thrombin-induced endothelial barrier disruption
Format: cell-based
Conditions: peptide at 5 to 50 nM
Text: The bottom curve in each panel of the figure is labeled as IIa for thrombin alone and represents the observed effects for thrombin (IIa) in the absence of peptide. In each panel, IIa was always present for each peptide added. The number in each panel indicates the concentration of each peptide for the respective curves. The peptide concentration of 0 is represented by the bottom curve labeled “IIa”. (A) the dose response inhibition over time of TER, expressed by Normalized Cell Index (NCI) by the PAR1 derived peptide P1(47-66) or TR47 using concentrations between 5 and 50 nM. (B) the dose response inhibition over time of NCI by the PAR3-derived peptide P3(42-65) or P3R using a 5 to 50 nM concentration range. (C) The NCI dose response inhibition over time by the short sequence PAR1-derived peptide P1(47-55) using a range of concentrations between 50 nM and 100 μM peptide. (D) The NCI dose response inhibition over time by the short sequence PAR3-derived peptide P3(42-54) using a range of concentrations between 1 μM and 200 μM peptide. (E) The NCI dose response inhibition over time by the hybrid peptide G10 in which the P1(47-55) peptide described in panel C was linked to a PAR3 peptide P3(51-65) by using 10 Gly residues. In this case the range of concentrations to study the dose response inhibition was between 3 and 50 nM peptide. An estimate for the percentage of activity for each peptide dilution in presence of thrombin can be quantified by obtaining the Area under the Curve (AUC) for each peptide dilution in comparison to the value for the AUC for thrombin alone in the absence of any peptide. These values were used to calculate the potency of each PAR peptide.
Transendothelial Electric Resistance (TER)-based assays were used to monitor the disruption of endothelial barrier integrity caused by thrombin. The anti-inflammatory, vasculoprotective actions of different PAR peptides for protecting against thrombin-induced vascular leakage on cultured endothelial cells (EA.hy926) were followed in real time using an iCELLigence machine (ACEA Biosciences Inc, San Diego, Calif.). EA.hy926 cells at a density of 10,000/well were pipetted into the wells of gold-plated microelectrode sensor (L8, Acea Biosciences). Subsequently, the increase of electrical resistance was monitored as cells grew and spread out on the microelectrodes to obtain confluence (reaching a plateau) over the TER plates connected to the recording instrument that detected in real time the changes in TER for each well. The effects of different PAR-derived peptides at the indicated concentrations were tested for dose-response inhibition of thrombin's effects when each of the peptide dilutions was added 30 min prior to the addition of thrombin (0.25 nM final in all wells). The percentage of inhibition was proportional to the increase in TER signal over time. Cell index values, reflecting TER signals, were normalized prior to addition of thrombin following manufacturer's directions.

GAPPNSFEEFPFSALEGWTGATIT [P3R, PAR3-derived 24-mer peptide]
effect on thrombin-induced disruption of endothelial barrier: had no significant effect
